Source: patent US11666561B2, “Compounds for use in regulating follicle maturation” (AARHUS UNIVERSITET, priority 2017, dated 2023)

System: primordial-to-primary follicle transition
Assay: In vitro organ culture of mouse ovaries with compound, H&E histology and counting of primordial, primary and secondary follicles
Details: for effect on primordial-to-primary follicle transition / primordial follicle activation: in vitro cultured mouse ovaries, concentration not given
Procedure: Ovaries obtained from mice were washed twice with culture medium. Antagonists or agonists to be tested were dissolved in suitable solvents and added to the medium. As a control medium comprising solvent without the antagonist or agonist was used. One of the ovaries was cultured in a control medium and another was cultured with the antagonist or agonist. The tested antagonists or agonists and their concentrations are outlined in table 2.
Ovaries were incubated with antagonist at 37° C. and 5% CO2 for 24 and 96 hours, respectively (see table 3).
Cultures ovaries were fixed, embedded in paraffin and sliced microscopy. The sectioned ovaries were stained with hematoxylin and eosin (H&E) to visualize the morphology of the ovary by microscopy.
The number of primordial, primary and secondary follicles was determined, and it was determined whether the antagonist or agonist was capable of regulating folliculogenesis.
C57BL/6j×CBA F1 hybrid mice (Janvier Labs, France) were housed and bred in the animal facilities at Department of Biomedicine, Aarhus University. Animals were housed in a 12:12 h controlled light-dark environment and were provided with food and water ad libitum. 7-day-old female pups were used for the study.
Pups were sacrificed and ovaries were excised. Using a stereomicroscope MZ75 (Leica Microsystems, Germany), excess tissue was removed. During the dissection, ovaries were kept at 37° C. in culture medium: aMEM (Thermo Fisher) supplemented with 10% FBS (Thermo Fisher), 100 mIU/mL of FSH (Sigma-Aldrich), 100 IU/mL penicillin (Thermo Fisher), 100 μg/mL streptomycin (Thermo Fisher) and 1% Insulin-Transferrin-Selenium (Thermo Fisher). Isolated ovaries were transferred into well inserts (PET membrane ThinCert, 0.4 μm-pore size; Greiner bio-one) in 24-well plates (Tissue culture treated, cell culture plates; Costar). 200-300 μL of culture medium was added to the well below the insert and up to two ovaries were placed on the membrane of each insert. The culture medium was supplemented with different concentrations of the tested compounds; bpV(HOpic) (Sigma-Aldrich), Temsirolimus (Sigma-Aldrich), Ketotifen (Sigma-Aldrich), 3PO (Sigma-Aldrich), Dorsomorphin (Sigma-Aldrich), AICAR (Sigma-Aldrich), NCG (Sigma-Aldrich), and Dyphylline (Cayman Chemical). Up to six wells in the 24-well plate were used for inserts. Sterile dH2O was added to the rest of the wells to ensure humidity and reduce evaporation. The ovaries were cultured at 37° C., 5% CO2 for four days. 150 μL of medium was replaced every other day with fresh culture medium.
Ovaries kept in organ culture for four days were fixed for 24 hours in 4% paraformaldehyde solution at 4° C. After fixation, ovaries were dehydrated in ethanol series using 70%, 96% and 99.9% ethanol. Xylene was used as clearing agent before the ovaries were infiltrated in paraffin wax. 5 μm-sections of samples in paraffin were cut using a microtome (Cut 6062, SLEE medical, Germany). Paraffin sections were mounted on glass slides, paraffin was melted at 60° C., and the samples were stained with hematoxylin and eosin (using standard protocols).
The samples were deparaffinized by incubating in xylene for 2×15 min. and subsequently rehydrated in series of ethanol; 3×2 min. in 99.9% ethanol, 2 min. in 96% ethanol, and 2 min. in 70% ethanol. The samples were then rinsed in dH2O, stained in hematoxylin for 40 sec., rinsed in dH2O for 5 min., and stained in eosin for 46 sec. The samples were dehydrated in ethanol: 2×2 min. in 96% ethanol, 2×2 min in 99.9% ethanol, and finally cleared up in xylene for at least 30 min before mounting the samples using Eukitt mounting medium (Sigma-Aldrich) and cover glass.
The number of follicles at each developmental stage was counted using an inverted research microscope (DM14000B, Leica Microsystems, Germany). The follicles of every 3rd to 4th section of each ovary were counted and the distribution of follicles in the different stages in percentage was determined.

[1] = Table 1, effect with a figure cited
[2] = Table 2, effect with a figure cited
[3] = 30 μM 3PO, ovaries cultured four days, only healthy follicles counted

| Molecule | Effect (Table 1, marked (ongoing)) | Effect (Table 2, marked (ongoing)) | also measured |
| --- | --- | --- | --- |
| O=C(O)c1cc(N(Cc2ccccc2O)Cc2cc(O)ccc2O)ccc1O [Lavendustin, 5-amino-((N-2,5-dihydroxybenzyl)-N′-2-hydroxybenzyl)aminosalicylic acid] | promotes | promotes |  |
| CC(C)c1cc(CNc2nc(Nc3cc(C4CC4)[nH]n3)cc(N3CCN(C)CC3)n2)on1 [XL228, 4-N-(5-cyclopropyl-1H-pyrazol-3-yl)-6-(4-methylpiperazin-1-yl)-2-N-[(3-propan-2-yl-1,2-oxazol-5-yl)methyl]pyrimidine-2,4-diamine] | promotes | promotes |  |
| CO[C@H]1C[C@@H]2CC[C@@H](C)[C@@](O)(O2)C(=O)C(=O)N2CCCC[C@H]2C(=O)O[C@H]([C@H](C)C[C@@H]2CC[C@@H](OC(=O)C(C)(CO)CO)[C@H](OC)C2)CC(=O)[C@H](C)/C=C(\C)[C@@H](O)[C@@H](OC)C(=O)[C@H](C)C[C@H](C)/C=C/C=C/C=C/1C [Temsirolimus] |  |  | effect on primordial-to-primary follicle transition / primordial follicle activation: decrease the rate of primordial-to-primary transition |
| CCOc1cc(C(C)(C)C)ccc1C1=N[C@@](C)(c2ccc(Cl)cc2)[C@@](C)(c2ccc(Cl)cc2)N1C(=O)N1CCN(CCCS(C)(=O)=O)CC1 [RO5045337, [(4S,5R)-2-(4-tert-butyl-2-ethoxyphenyl)-4,5-bis(4-chlorophenyl)-4,5-dimethylimidazol-1-yl]-[4-(3-methylsulfonylpropyl)piperazin-1-yl]methanone] | promotes | promotes |  |
| CC1(C)CCC2(CC1)N[C@@H](C(=O)N[C@@H]1CC[C@@H](C(N)=O)OC1)[C@H](c1ccnc(Cl)c1F)[C@]21C(=O)Nc2cc(Cl)ccc21.Cc1ccc(S(=O)(=O)O)cc1 [DS-3032b, L-Erythro-hexonamide, 2,6-anhydro-5-((((3′R,4'S,5′R)-6″-chloro-4′-(2-chloro-3-fluoro-4-pyridinyl)-1″,2″-dihydro-4,4-dimethyl-2″-oxodispiro(cyclohexane-1,2′-pyrrolidine-3′,3″-(3H)indol)-5′-yl)carbonyl)amino)-3,4,5-trideoxy-, 4-methylbenzenesulfon] | promotes | promotes |  |
| C=CCN(/C=C1/C(=O)O[C@H](COC)[C@@]2(C)C1=C(O)C(=O)C1=C2[C@H](OC(C)=O)C[C@]2(C)C(=O)CC[C@@H]12)CC=C [PX-866] | promotes | promotes |  |
| Cn1c(=O)c2c(ncn2CC(O)CO)n(C)c1=O (stereo not shown) [Dyphylline, 7-(2,3-dihydroxypropyl)-1,3-dimethylpurine-2,6-dione] |  |  | effect on follicle distribution (10 and 100 μM Dyphylline, 96 hours, number too small for statistics): has the potential to activate primordial follicle distribution; Effect [1]: Promotes; Effect [2]: Promotes; effect on primordial-to-primary follicle transition / primordial follicle activation: activation of primordial follicles |
| CN(C)C/C=C/C(=O)Nc1cc2c(Nc3ccc(F)c(Cl)c3)ncnc2cc1O[C@H]1CCOC1 [Afatinib, (E)-N-[4-(3-chloro-4-fluoroanilino)-7-[(3S)-oxolan-3-yl]oxyquinazolin-6-yl]-4-(dimethylamino)but-2-enamide] | promotes | promotes |  |
| CCCCNC(=O)NS(=O)(=O)c1ccc(C)cc1 [Tolbutamide, 1-butyl-3-(4-methylphenyl)sulfonylurea] | promotes | promotes |  |
| CN(c1ncccc1CNc1nc(Nc2ccc3c(c2)CC(=O)N3)ncc1C(F)(F)F)S(C)(=O)=O [PF-562271, N-methyl-N-[3-[[[2-[(2-oxo-1,3-dihydroindol-5-yl)amino]-5-(trifluoromethyl)pyrimidin-4-yl]amino]methyl]pyridin-2-yl]methanesulfonamide] | promotes | promotes |  |
| Nc1ccn([C@@H]2O[C@H](CO)[C@@H](O)[C@@H]2O)c(=O)n1 [MK-8242, 4-amino-1-[(2R,3S,4S,5R)-3,4-dihydroxy-5-(hydroxymethyl)oxolan-2-yl]pyrimidin-2-one] | promotes | promotes |  |
| COc1ncc(-c2nc3c(n2C(C)C)[C@H](c2ccc(Cl)cc2)N(c2cc(Cl)cn(C)c2=O)C3=O)c(OC)n1 [HDM201, (6S)-5-(5-chloro-1,2-dihydro-1-methyl-2-oxo-3-pyridinyl)-6-(4-chlorophenyl)-2-(2,4-dimethoxy-5-pyrimidinyl)-5,6-dihydro-1-(1-methylethyl)-Pyrrolo[3,4-d]imidazol-4(1H)-one] | promotes | promotes |  |
| CCOc1cc2ncc(C#N)c(Nc3ccc(F)c(Cl)c3)c2cc1NC(=O)/C=C/CN(C)C [Pelitinib, (E)-N-[4-(3-chloro-4-fluoroanilino)-3-cyano-7-ethoxyquinolin-6-yl]-4-(dimethylamino)but-2-enamide] | promotes | promotes |  |
| Cixutumumab: fully human IgG1 monoclonal antibody directed against the human insulin-like growth factor-1 receptor | promotes | promotes |  |
| Cn1c(=O)c2[nH]cnc2n(C)c1=O [Theophylline, 1,3-dimethyl-7H-purine-2,6-dione] | promotes | promotes |  |
| COc1ccc(Cl)c(Nc2nc3ccccc3nc2NS(=O)(=O)c2cccc(NC(=O)C(C)(C)N)c2)c1 [XI147, 2-amino-N-[3-({3-[(2-chloro-5-methoxyphenyl)amino]quinoxalin-2-yl}sulfamoyl)phenyl]-2-m] | promotes | promotes |  |
| c1cc(-c2cnn3cc(-c4ccc(OCCN5CCCCC5)cc4)cnc23)ccn1 [Dorsomorphin] |  |  | primary follicles (5 μM dorsomorphin, four days): 12.78±2.23%; secondary follicles (5 μM dorsomorphin, four days): 15.87±3.06%; primordial follicles (5 μM dorsomorphin, four days, own control contaminated, compared with control of another experiment): 71.32±5.50% |
| COC(=O)C1=C(C)NC(C)=C([N+](=O)[O-])C1c1ccccc1C(F)(F)F (stereo not shown) [BAY 1217389, methyl 2,6-dimethyl-5-nitro-4-[2-(trifluoromethyl)phenyl]-1,4-dihydropyridine-3-carboxylate] | promotes | promotes |  |
| COc1cc2c(cc1OC(C)C)[C@H](c1ccc(Cl)cc1)N(c1ccc(N(C)CC3CCC(N4CCN(C)C(=O)C4)CC3)cc1)C(=O)C2 (stereo partly drawn) [CGM097, (1S)-1-(4-chlorophenyl)-6-methoxy-2-[4-[methyl-[[4-(4-methyl-3-oxopiperazin-1-yl)cyclohexyl]methyl]amino]phenyl]-7-propan-2-yloxy-1,4-dihydroisoquinolin-3-one] | promotes | promotes |  |
| C[C@H]1Cc2ccccc2N1C(=O)Cc1nc(N2CCOCC2)cc(=O)[nH]1 [SAR260301, (S)-2-(2-(2-Methylindolin-1-yl)-2-oxoethyl)-6-morpholinopyrimidin-4(3H)-one] | promotes | promotes |  |
| O=C(C=Cc1cccnc1)c1ccncc1 [3PO, 3-(3-pyridinyl)-1-(4-pyridinyl)-2-propen-1-one] |  |  | primary follicles [3]: 26.60±11.24%; primordial follicles [3]: 63.11±8.83%; secondary follicles [3]: 11.58±9.07%; health of follicles in treated ovaries (3PO treated ovaries): several of the follicles seemed atretic; Effect [1]: promotes; Effect [2]: promotes; effect on primordial-to-primary follicle transition / primordial follicle activation: promote primordial-to-primary transition |
